For 1 compound, Activity results are on record in ChEMBL document CHEMBL5620412, “Discovery of benzofuran-2-carboxylic acid derivatives as lymphoid tyrosine phosphatase (LYP) inhibitors for cancer immunotherapy” (Eur J Med Chem, 2023).

This assay deals with T1, Tyrosine-protein phosphatase non-receptor type 22 (Homo sapiens) (UniProt Q9Y2R2).
T1 sequence (whole entry): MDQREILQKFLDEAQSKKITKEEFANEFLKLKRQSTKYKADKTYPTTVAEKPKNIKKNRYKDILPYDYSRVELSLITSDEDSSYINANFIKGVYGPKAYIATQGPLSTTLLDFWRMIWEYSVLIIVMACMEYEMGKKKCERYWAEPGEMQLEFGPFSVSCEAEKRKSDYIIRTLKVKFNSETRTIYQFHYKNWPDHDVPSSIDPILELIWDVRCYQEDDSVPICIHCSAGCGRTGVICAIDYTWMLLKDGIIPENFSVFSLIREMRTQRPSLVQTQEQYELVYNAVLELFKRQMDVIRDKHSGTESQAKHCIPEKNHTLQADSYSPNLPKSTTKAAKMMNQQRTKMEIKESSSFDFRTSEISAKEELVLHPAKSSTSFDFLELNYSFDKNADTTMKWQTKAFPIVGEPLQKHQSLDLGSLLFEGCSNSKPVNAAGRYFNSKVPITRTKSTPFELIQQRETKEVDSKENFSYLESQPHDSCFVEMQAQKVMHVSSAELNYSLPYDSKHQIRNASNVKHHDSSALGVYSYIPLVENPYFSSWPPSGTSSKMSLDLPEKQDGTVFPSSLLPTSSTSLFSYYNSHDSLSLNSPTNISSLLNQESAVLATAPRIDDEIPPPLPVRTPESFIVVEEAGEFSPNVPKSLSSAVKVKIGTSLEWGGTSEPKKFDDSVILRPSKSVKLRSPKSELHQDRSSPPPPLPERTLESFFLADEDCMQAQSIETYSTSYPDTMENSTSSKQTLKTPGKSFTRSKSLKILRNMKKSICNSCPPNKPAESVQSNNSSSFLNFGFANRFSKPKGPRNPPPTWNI
Description: Reversible binding affinity to N-terminal His-tagged LYP catalytic domain (1 to 294 residues) (unknown origin) expressed in Escherichia coli BL21 (DE3) cells using pNPP as substrate incubated for 10 to 90 mins by absorbance based assay. Particulars: time 10-90 min.

Molecules are shown by their SMILES. Active and inactive are the calls of the source. The rule behind the calls is not given here.

As for `O=C(O)c1cc2cc(N(Cc3ccc(OCc4ccccc4)cc3)S(=O)(=O)c3ccc(-c4ccccc4)cc3)ccc2o1`, the result was Active.
